Key:
[1] = target: Muscarinic acetylcholine receptor M2 (Homo sapiens) (UniProt P08172); assay: Binding affinity to human M2 receptor assessed as inhibition of control specific binding at 10 uM
[2] = target: C-C chemokine receptor type 1 (Homo sapiens) (UniProt P32246); assay: Binding affinity to human CCR1 receptor assessed as inhibition of control specific binding at 10 uM
[3] = target: 5-hydroxytryptamine receptor 5A (Homo sapiens) (UniProt P47898); assay: Binding affinity to human 5-HT5A receptor assessed as inhibition of control specific binding at 10 uM
[4] = target: Melanocortin receptor 4 (Homo sapiens) (UniProt P32245); assay: Binding affinity to human MC4 receptor assessed as inhibition of control specific binding at 10 uM
[5] = Cmax in Wistar rat at 32.50 mg/kg, ip; format: ADME, organism-based; design: dose 32.5 mg/kg, route intraperitoneal; conditions: in vivo, 32.5 mg/kg
[6] = AUC (infinity) in Wistar rat at 29.73 mg/kg, po; format: ADME, organism-based; design: dose 29.73 mg/kg, time infinity, route oral; conditions: in vivo
[7] = target: Transient receptor potential cation channel subfamily V member 4 (Rattus norvegicus, UniProt Q9ERZ8); assay: Antagonist activity at rat TRPV4 receptor expressed in HEK293 cells assessed as inhibition of 4alpha-PDD-stimulated calcium flux after 10 mins; format: cell-based
[8] = target: Galanin receptor type 2 (Homo sapiens) (UniProt O43603); assay: Binding affinity to human GAL2 receptor assessed as inhibition of control specific binding at 10 uM
[9] = target: Mu-type opioid receptor (Homo sapiens) (UniProt P35372); assay: Binding affinity to human mu opioid receptor agonist site assessed as inhibition of control specific binding at 10 uM
[10] = target: Nociceptin receptor (Homo sapiens) (UniProt P41146); assay: Binding affinity to human ORL1 receptor assessed as inhibition of control specific binding at 10 uM
[11] = target: Transient receptor potential cation channel subfamily V member 4 (Mus musculus, UniProt Q9EPK8); assay: Antagonist activity at mouse TRPV4 receptor expressed in HEK293 cells assessed as inhibition of EC80 of 4alpha-PDD-stimulated calcium flux after 10 mins; format: cell-based
[12] = target: Endothelin-1 receptor (Homo sapiens) (UniProt P25101); assay: Binding affinity to human ETA receptor assessed as inhibition of control specific binding at 10 uM
[13] = target: Adrenergic receptor alpha-2 (Homo sapiens) (UniProt P08913+P18825+P18089); assay: Binding affinity to non-selective alpha2 adrenergic receptor (unknown origin) assessed as inhibition of control specific binding at 10 uM; format: protein assay
[14] = target: Melatonin receptor type 1A (Homo sapiens) (UniProt P48039); assay: Binding affinity to human MT1 receptor assessed as inhibition of control specific binding at 10 uM
[15] = target: 5-hydroxytryptamine receptor 7 (Homo sapiens) (UniProt P34969); assay: Binding affinity to human 5-HT7 receptor assessed as inhibition of control specific binding at 10 uM
[16] = target: D(2) dopamine receptor (Homo sapiens) (UniProt P14416); assay: Binding affinity to human D2S receptor assessed as inhibition of control specific binding at 10 uM
[17] = target: Cholecystokinin receptor type A (Homo sapiens) (UniProt P32238); assay: Binding affinity to human CCKA receptor assessed as inhibition of control specific binding at 10 uM
[18] = target: Kappa-type opioid receptor (Homo sapiens) (UniProt P41145); assay: Binding affinity to human kappa opioid receptor assessed as inhibition of control specific binding at 10 uM
[19] = target: Histamine H2 receptor (Homo sapiens) (UniProt P25021); assay: Binding affinity to human H2 receptor assessed as inhibition of control specific binding at 10 uM
[20] = target: Type-1 angiotensin II receptor (Homo sapiens) (UniProt P30556); assay: Binding affinity to human AT1 receptor assessed as inhibition of control specific binding at 10 uM
[21] = target: Neurotensin receptor type 1 (Homo sapiens) (UniProt P30989); assay: Binding affinity to human NT1 receptor assessed as inhibition of control specific binding at 10 uM
[22] = target: T1, Transient receptor potential cation channel subfamily V member 4 (Homo sapiens, UniProt Q9HBA0); assay: Antagonist activity at human TRPV4 receptor expressed in HEK293 cells assessed as inhibition of EC80 of 4alpha-PDD-stimulated calcium flux after 10 mins; format: cell-based
[23] = target: Sodium-dependent dopamine transporter (Homo sapiens) (UniProt Q01959); assay: Binding affinity to human DA transporter assessed as inhibition of control specific binding at 10 uM
[24] = target: 5-hydroxytryptamine receptor 3A (Homo sapiens) (UniProt P46098); assay: Binding affinity to human 5-HT3 receptor assessed as inhibition of control specific binding at 10 uM
Homo sapiens [25] = species on record: Homo sapiens; assay: Binding affinity to verapamil site of calcium channel L (unknown origin) assessed as inhibition of control specific binding at 10 uM
[26] = target: 5-hydroxytryptamine receptor 2A (Homo sapiens) (UniProt P28223); assay: Binding affinity to human 5-HT2A receptor assessed as inhibition of control specific binding at 10 uM
[27] = Oral bioavailability in Wistar rat at 29.73 mg/kg; format: ADME, organism-based; conditions: in vivo
[28] = target: Transient receptor potential cation channel subfamily V member 1 (Homo sapiens, UniProt Q8NER1); assay: Antagonist activity at human TRPV1 receptor expressed in HEK293 cells assessed as inhibition of capsaicin-stimulated calcium flux after 10 mins; format: cell-based
[29] = Clearance in Wistar rat at 1.40 mg/kg, iv; format: ADME, organism-based; conditions: in vivo, 1.4 mg/kg
[30] = target: Transient receptor potential cation channel subfamily M member 8 (Homo sapiens, UniProt Q7Z2W7); assay: Antagonist activity at human TRPM8 receptor expressed in HEK293 cells assessed as inhibition of menthol-stimulated calcium flux after 10 mins; format: cell-based
[31] = target: Beta-2 adrenergic receptor (Homo sapiens) (UniProt P07550); assay: Binding affinity to human beta2 adrenergic receptor assessed as inhibition of control specific binding at 10 uM
[32] = target: T1, Transient receptor potential cation channel subfamily V member 4; assay: Antagonist activity at human TRPV4 expressed in HEK293 cells assessed as inhibition of 20% hypotonic solution-induced Ca2+ influx; format: cell-based
[33] = target: Muscarinic acetylcholine receptor M1 (Homo sapiens) (UniProt P11229); assay: Binding affinity to human M1 receptor assessed as inhibition of control specific binding at 10 uM
[34] = target: Adenosine receptor A3 (Homo sapiens) (UniProt P0DMS8); assay: Binding affinity to human adenosine A3 receptor assessed as inhibition of control specific binding at 10 uM
[35] = target: D(1A) dopamine receptor (Homo sapiens) (UniProt P21728); assay: Binding affinity to human D1 receptor assessed as inhibition of control specific binding at 10 uM
Homo sapiens [36] = species on record: Homo sapiens; assay: Binding affinity to SK+ calcium channel (unknown origin) assessed as inhibition of control specific binding at 10 uM
[37] = target: Transient receptor potential cation channel subfamily V member 3 (Homo sapiens, UniProt Q8NET8); assay: Antagonist activity at human TRPV3 receptor expressed in HEK293 cells assessed as inhibition of capsaicin-stimulated calcium flux after 10 mins; format: cell-based

T1 sequence (Q9HBA0 whole entry): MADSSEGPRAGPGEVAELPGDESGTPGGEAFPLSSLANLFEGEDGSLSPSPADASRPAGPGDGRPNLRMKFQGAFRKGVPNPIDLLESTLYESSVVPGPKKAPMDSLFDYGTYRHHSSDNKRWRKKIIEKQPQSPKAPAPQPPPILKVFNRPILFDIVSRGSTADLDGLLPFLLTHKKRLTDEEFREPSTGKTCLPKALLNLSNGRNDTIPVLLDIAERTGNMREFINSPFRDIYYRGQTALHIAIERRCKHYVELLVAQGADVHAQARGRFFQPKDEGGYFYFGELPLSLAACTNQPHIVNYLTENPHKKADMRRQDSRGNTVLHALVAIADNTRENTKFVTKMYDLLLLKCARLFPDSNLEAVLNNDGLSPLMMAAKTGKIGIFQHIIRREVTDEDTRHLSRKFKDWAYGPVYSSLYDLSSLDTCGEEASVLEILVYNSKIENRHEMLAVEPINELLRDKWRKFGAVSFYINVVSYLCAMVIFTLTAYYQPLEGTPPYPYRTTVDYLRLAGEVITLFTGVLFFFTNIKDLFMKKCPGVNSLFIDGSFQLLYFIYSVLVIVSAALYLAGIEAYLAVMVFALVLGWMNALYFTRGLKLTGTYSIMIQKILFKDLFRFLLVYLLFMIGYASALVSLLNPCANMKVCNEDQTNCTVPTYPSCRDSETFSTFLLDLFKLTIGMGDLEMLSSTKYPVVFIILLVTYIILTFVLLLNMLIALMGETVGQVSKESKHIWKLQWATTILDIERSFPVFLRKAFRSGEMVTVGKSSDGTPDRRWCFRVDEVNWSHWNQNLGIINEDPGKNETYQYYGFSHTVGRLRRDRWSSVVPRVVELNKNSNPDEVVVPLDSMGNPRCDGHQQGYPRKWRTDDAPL
Neurotensin receptor type 1 (Homo sapiens), sequence (P30989 whole entry): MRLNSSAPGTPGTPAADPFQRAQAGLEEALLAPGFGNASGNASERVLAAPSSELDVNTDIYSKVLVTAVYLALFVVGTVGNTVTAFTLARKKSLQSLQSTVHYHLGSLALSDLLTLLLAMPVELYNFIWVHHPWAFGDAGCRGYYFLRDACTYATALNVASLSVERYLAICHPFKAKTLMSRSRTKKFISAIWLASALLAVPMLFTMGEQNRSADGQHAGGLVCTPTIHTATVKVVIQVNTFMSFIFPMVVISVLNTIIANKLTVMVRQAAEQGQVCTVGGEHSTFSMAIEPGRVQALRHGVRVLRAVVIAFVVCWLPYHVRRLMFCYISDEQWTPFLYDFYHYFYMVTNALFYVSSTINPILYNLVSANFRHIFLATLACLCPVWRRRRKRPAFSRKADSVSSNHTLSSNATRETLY
Adenosine receptor A3 (Homo sapiens), sequence (P0DMS8 whole entry): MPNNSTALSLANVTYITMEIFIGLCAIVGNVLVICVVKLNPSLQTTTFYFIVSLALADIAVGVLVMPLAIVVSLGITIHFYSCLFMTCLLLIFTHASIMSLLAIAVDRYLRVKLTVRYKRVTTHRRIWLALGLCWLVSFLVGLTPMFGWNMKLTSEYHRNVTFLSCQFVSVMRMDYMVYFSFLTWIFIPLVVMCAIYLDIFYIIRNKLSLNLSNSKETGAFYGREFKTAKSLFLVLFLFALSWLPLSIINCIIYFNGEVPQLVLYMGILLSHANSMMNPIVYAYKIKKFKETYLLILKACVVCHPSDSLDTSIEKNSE
Muscarinic acetylcholine receptor M2 (Homo sapiens), sequence (P08172 whole entry): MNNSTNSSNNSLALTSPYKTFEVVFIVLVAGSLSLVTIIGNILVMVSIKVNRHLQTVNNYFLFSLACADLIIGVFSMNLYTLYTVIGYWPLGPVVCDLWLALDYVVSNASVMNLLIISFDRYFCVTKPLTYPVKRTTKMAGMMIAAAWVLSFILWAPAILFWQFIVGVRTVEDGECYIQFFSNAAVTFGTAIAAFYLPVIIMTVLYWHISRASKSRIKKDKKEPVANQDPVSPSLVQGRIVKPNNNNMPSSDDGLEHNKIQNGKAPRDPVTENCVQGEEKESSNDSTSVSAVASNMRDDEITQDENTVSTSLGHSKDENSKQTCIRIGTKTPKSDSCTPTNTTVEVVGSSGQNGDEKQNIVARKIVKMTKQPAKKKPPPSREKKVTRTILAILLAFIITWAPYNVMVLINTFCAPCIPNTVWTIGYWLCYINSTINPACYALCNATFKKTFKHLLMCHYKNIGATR
Transient receptor potential cation channel subfamily V member 4 (Mus musculus, UniProt Q9EPK8), sequence (Q9EPK8 whole entry): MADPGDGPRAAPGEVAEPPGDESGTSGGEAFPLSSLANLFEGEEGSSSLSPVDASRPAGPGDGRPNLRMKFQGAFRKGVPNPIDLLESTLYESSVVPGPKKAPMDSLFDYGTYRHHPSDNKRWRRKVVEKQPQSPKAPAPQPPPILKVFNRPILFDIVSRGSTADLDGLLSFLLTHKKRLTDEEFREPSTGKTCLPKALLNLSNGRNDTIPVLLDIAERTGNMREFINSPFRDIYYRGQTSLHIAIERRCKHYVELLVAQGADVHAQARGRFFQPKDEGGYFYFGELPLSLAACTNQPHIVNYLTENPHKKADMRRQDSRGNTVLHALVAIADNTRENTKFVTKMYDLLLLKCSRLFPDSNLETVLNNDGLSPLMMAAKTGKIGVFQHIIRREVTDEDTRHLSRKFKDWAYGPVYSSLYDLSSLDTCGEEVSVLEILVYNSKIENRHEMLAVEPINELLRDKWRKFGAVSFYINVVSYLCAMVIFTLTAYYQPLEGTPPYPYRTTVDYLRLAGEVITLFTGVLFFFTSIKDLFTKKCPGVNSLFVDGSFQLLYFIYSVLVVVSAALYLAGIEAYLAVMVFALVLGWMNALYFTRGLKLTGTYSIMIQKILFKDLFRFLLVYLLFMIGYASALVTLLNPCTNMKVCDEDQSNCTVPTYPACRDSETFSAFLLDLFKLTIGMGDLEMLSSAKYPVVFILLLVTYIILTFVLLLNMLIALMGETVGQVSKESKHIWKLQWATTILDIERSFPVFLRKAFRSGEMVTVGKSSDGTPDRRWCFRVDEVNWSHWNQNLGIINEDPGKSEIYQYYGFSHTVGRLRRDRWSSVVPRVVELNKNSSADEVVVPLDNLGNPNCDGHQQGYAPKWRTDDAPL
D(1A) dopamine receptor (Homo sapiens), sequence (P21728 whole entry): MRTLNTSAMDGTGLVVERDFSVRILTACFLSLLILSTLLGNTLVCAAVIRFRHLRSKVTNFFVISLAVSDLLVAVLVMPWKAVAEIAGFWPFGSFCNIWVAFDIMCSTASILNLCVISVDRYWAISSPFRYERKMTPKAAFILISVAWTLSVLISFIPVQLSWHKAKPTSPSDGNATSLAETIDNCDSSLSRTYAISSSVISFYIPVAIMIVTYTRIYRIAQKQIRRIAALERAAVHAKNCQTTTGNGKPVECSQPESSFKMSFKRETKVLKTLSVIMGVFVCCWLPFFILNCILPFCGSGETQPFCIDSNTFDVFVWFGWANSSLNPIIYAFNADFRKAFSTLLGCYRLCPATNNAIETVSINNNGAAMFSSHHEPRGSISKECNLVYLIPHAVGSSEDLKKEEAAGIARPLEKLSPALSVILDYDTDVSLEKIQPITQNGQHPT
Transient receptor potential cation channel subfamily V member 4 (Rattus norvegicus, UniProt Q9ERZ8), sequence (Q9ERZ8 whole entry): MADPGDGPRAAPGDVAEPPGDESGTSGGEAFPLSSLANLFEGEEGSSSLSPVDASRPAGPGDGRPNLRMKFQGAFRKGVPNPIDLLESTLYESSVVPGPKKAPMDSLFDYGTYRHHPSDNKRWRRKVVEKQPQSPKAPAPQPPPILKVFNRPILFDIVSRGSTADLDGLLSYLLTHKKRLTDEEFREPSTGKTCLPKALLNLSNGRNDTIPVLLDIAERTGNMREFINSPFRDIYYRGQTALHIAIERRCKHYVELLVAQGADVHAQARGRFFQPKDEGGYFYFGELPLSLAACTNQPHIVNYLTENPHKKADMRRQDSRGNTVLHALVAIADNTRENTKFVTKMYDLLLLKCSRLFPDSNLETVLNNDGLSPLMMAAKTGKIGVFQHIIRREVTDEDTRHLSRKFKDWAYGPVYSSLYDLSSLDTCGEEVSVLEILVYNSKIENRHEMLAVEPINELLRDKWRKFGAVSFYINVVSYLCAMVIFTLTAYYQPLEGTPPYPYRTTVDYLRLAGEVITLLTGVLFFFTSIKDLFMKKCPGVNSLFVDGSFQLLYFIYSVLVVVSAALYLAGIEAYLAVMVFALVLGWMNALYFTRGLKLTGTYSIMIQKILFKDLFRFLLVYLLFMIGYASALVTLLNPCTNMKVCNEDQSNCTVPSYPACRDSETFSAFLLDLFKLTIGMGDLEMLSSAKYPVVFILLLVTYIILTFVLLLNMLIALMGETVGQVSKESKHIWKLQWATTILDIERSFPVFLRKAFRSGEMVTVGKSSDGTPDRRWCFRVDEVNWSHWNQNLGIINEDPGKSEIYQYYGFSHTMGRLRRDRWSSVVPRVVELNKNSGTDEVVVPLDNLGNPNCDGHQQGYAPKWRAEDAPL
Cholecystokinin receptor type A (Homo sapiens), sequence (P32238 whole entry): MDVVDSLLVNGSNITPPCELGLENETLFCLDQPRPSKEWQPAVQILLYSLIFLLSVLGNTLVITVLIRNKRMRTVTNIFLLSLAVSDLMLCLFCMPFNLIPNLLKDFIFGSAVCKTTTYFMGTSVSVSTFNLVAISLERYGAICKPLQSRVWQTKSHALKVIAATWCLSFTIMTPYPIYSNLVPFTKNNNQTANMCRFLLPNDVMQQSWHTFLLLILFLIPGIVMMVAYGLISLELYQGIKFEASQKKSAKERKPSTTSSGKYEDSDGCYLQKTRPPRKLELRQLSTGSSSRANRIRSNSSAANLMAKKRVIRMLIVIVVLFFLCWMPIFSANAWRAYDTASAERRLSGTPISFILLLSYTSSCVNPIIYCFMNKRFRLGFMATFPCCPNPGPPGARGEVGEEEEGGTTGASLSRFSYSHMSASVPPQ
Melanocortin receptor 4 (Homo sapiens), sequence (P32245 whole entry): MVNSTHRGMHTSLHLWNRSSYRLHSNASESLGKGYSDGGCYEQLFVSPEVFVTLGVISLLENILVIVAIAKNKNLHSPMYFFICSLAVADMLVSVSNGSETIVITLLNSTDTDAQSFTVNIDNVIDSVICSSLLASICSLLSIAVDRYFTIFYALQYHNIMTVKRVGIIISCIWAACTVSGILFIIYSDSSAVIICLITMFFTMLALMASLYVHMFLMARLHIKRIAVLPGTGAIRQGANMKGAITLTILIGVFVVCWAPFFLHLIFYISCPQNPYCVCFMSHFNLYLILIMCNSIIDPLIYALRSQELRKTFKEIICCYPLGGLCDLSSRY

`CC(C)N1CCN(S(=O)(=O)c2ccc(NC(=O)c3ccc(C(F)(F)F)cc3[N+](=O)[O-])cc2)CC1` gave an inhibition [1] of 6%, an inhibition [2] of -5% and an inhibition [3] of 0%. For the same compound, the inhibition [4] was -8%, the Cmax [5] was 10600 ng/mL and the AUC(0-inf) [6] was 10100 ng·h/mL. It also gave an IC50 [7] of 120 nM, an inhibition [8] of 4% and an inhibition [9] of 9%. It also gave an inhibition [10] of -2%, an IC50 [11] of 320 nM and an inhibition [12] of -4%. The inhibition [13] was -1%, the inhibition [14] was 5% and the inhibition [15] was -5%. It also gave an inhibition [16] of 2%, an inhibition [17] of 3% and an inhibition [18] of 3%. The inhibition [19] was -4%, the inhibition [20] was -6% and the inhibition [21] was -6%. It also gave an IC50 [22] of 420 nM, an inhibition [23] of 10% and an inhibition [24] of -3%. For the same compound, the inhibition (Homo sapiens [25]) was 7%, the inhibition [26] was 28% and the bioavailability [27] was 46.8%. The IC50 [28] was over 10000 nM, the clearance [29] was 23.7 mL/min/kg and the IC50 [30] was 30000 nM. The inhibition [31] was 1%, the IC50 [32] was 570 nM and the inhibition [33] was 76%. For the same compound, the inhibition [34] was 10%, the inhibition [35] was 1% and the inhibition (Homo sapiens [36]) was -4%. It also gave an IC50 [37] of over 30000 nM.

Reference: ChEMBL document CHEMBL3612012, “Identification of orally-bioavailable antagonists of the TRPV4 ion-channel” (Bioorg Med Chem Lett, 2015)
